Patent publication US8691947B2, “Materials related to sodium/potassium adenosine triphosphatase and Src” (The University of Toledo, priority 2010, dated 2014)
Entries after “also recorded” stand apart in the source; their conditions may differ.

Experiments:
[1] = target: T1, Na/K-ATPase-associated Src (Sus scrofa, UniProt P05024); format: biochemical, pig; conditions: for Effect on activity of Na/K-ATPase-associated Src, Na/K-ATPase stabilized in E1P: NEM and AMP-PNP used together; for Effect on activity of Na/K-ATPase-associated Src: purified pig kidney Na/K-ATPase treated with modifier or ouabain, incubated with purified Src
T1 construct: The Na/K-ATPase was purified from pig kidney and the purified Src was purchased from Upstate; tissue Upstate (for the Src chain); host or cells: pig kidney
Experimental: The Na/K-ATPase was purified from pig kidney and the purified Src was purchased from Upstate. To stabilize the Na/K-ATPase in the E2P conformation, the purified Na/K-ATPase was treated by two different fluoride compounds (BeF and AIF) as described, washed and then incubated with Src. The ouabain-treated and control Na/K-ATPase/Src complex was used as positive and negative controls for the experiments, respectively. Similarly, the Na/K-ATPase was stabilized at the E1P state by NEM/AMPPNP as described and then analyzed.
The purified Na/K-ATPase was subjected to chymotrypsin or trypsin digestion as described. The digested enzyme was washed and assayed for Na/K-ATPase activity. The enzyme preparations with less than 25% activity was incubated with Src in 150 mM Na^+ medium in the presence or absence of 10 μM ouabain. The non-digested enzyme was used as control. […] Quantitative data was presented as mean±S.E. of at least 3 separate experiments. *, p<0.05; **, p<0.01.
The inventors utilized different chemical modifiers to stabilize the Na/K-ATPase in distinct conformational states and then assessed the conformation-dependent effect of Na/K-ATPase on Src. Fluoride compounds such as aluminum fluoride and beryllium fluoride, can interact with Na/K-ATPase as phosphate analogues, and stabilize the enzyme as well as other P-type ATPase in the E2P conformation.

LLC-PK1 cells = assay: Western blot of Src and ERKs in LLC-PK1 cell lysates; format: cell-based
Experimental: FIG. 3E, FIG. 3F, and FIG. 3G: Cells were exposed to media containing different concentrations of K^+ or Na^+, and then lysed. Cell lysates were subjected to Western blot analyses of Src and ERKs as indicated. Quantitative data was presented as mean±S.E. of at three independent experiments. *, p<0.05; **, p<0.01.
To verify these findings, the inventors also conducted Western blot analyses of cell lysates after the cells were incubated in normal or low K^+ medium.

Na/K-ATPase/Src complex = target: T2, Na/K-ATPase/Src complex (Homo sapiens, UniProt P12931); assay: Ouabain-induced Src activation (Tyr418 autophosphorylation, Western blot) in a mixture of purified Na/K-ATPase and Src; format: biochemical; conditions: Src preincubated with peptide 15 min, pig kidney Na/K-ATPase 15 min, 1 μM ouabain 5 min, 2 mM ATP/Mg2+
T2 construct: purchased
Experimental: FIG. 4. […] CD2C2 peptide was incubated with purified Src (the amount was indicated as molar ratio of Src/Cd2C2) for 15 minutes in PBS solution. Then purified Na/K-ATPase from pig kidney was added for another 15 minutes. After that, ouabain was added to the reaction system for 5 minutes, followed by addition of 2 mM Mg2+/ATP. The Src activity was determined by Western blot probing with anti-phosphorylated Tyr418. A representative Western blot was shown, and quantitative data was presented as mean±S.E. of at 3 separate experiments. **, p<0.01.
FIG. 7B, antagonizing ouabain-induced Src activation by CD2C2. Src was preincubated with indicated amount of CD2C2 peptide for 15 min in PBS. […] Then Src autophosphorylation was detected in the presence of 2 mM ATP/Mg^2+. […]
To support this notion, the inventors checked whether the peptides derived from C-terminus of CD2 can attenuate the binding between CD2 and Src. […] Then pull-down pellets were analyzed by Western blot with antibody against Src. […] Then Src autophosphorylation was detected in the presence of 2 mM ATP/Mg^2+. […]
The inventors incubated the test chemicals with commercially available purified Src for 15 minutes in PBS solution. […] The Src activity was determined by Western blot probing with anti-phosphorylated Tyr418. […] Both peptides were incubated in a 96 well plate, and the FRET energy transfer was measured using a spectra meter. […]

Src SH2 domain = Src SH2 domain (Homo sapiens, UniProt P12931); assay: GST pull-down of GST-CD2 binding to Src in the absence and presence of peptides; conditions: peptide incubated with GST-CD2 and Src for 15 min, Western blot with anti-Src antibody
Experimental: CD2C2 was added to a mixture of Src and GST-CD2 at indicated concentrations. Src in the pull-down products was analyzed by Western blot with anti-Src antibody.
To support this notion, the inventors checked whether the peptides derived from C-terminus of CD2 can attenuate the binding between CD2 and Src. Purified GST-CD2 was incubated with Src in the absence and presence of peptides for 15 min. Then pull-down pellets were analyzed by Western blot with antibody against Src. […] If CD2C2 peptide disrupts the SH2/CD2 interaction, the inventors expect that CD2C2 may abolish CTS-induced Src activation. To test that, the inventors preincubated Src with indicated amount of CD2 peptides for 15 min in PBS. Then purified pig kidney Na/K-ATPase was added for another 15 min. 1 μM ouabain was added to mixture for 5 min. Then Src autophosphorylation was detected in the presence of 2 mM ATP/Mg^2+. […] Therefore, to search for new antagonists, the inventors will perform the following four sets of experiments.

Compound	Effect on activity of Na/K-ATPase-associated Src, Na/K-ATPase stabilized in E1P [1]	Effect on activity of Na/K-ATPase-associated Src [1]	other results
Nc1ncnc2c1ncn2[C@@H]1O[C@H](COP(=O)(O)OP(=O)(O)NP(=O)(O)O)[C@@H](O)[C@H]1O [AMP-PNP, adenyl-5′-yl imidodiphosphate]	completely inhibited	–	–
CCN1C(=O)C=CC1=O [NEM, N-ethylmaleimide]	completely inhibited	–	–
[Be+2].[F-].[F-] [beryllium fluoride]	–	sufficient to stimulate the Na/K-ATPase-associated Src	–
C[C@@H]1O[C@@H](O[C@H]2C[C@@H](O)[C@]3(CO)[C@H]4[C@H](O)C[C@]5(C)[C@@H](C6=CC(=O)OC6)CC[C@]5(O)[C@@H]4CC[C@]3(O)C2)[C@H](O)[C@H](O)[C@H]1O [ouabain]	–	able to stimulate the Na/K-ATPase-associated Src	Effect on cellular Src activity and ERKs (LLC-PK1 cells): stimulated cellular Src activity
STNCV EGTAR GIVVY TGD (STNCVEGTARGIVVYTGD; listed as Sus scrofa) [CD2C2, peptide derived from C-terminus of CD2 of Na/K-ATPase α1 subunit; ouabain antagonist]	–	–	Antagonism of ouabain-induced Src activation (Na/K-ATPase/Src complex): potent ouabain antagonist; also recorded: abolished ouabain-induced Src activation in a dose-dependent manner; Antagonism of ouabain-induced Src activation (Na/K-ATPase/Src complex; listed as SEQ ID NO:1): abolishes ouabain-induced Src stimulation; Competition with binding of GST-CD2 to Src (Src in pull-down products) (Src SH2 domain): attenuates the binding of CD2 to Src; also recorded: able to compete with and block the binding of GST-CD2 to Src SH2 domain; Competition with binding of GST-CD2 to Src (Src in pull-down products) (Src SH2 domain; listed as SEQ ID NO:1): disrupts the interaction of the ATPase CD2/Src SH2 domain
aluminum fluoride	–	sufficient to stimulate the Na/K-ATPase-associated Src	–
